Measured values reported in the kinase profiling compilation of Christmann-Franck et al. (2016).

Key:
Experiment in all cases: KINOMEscan competition binding
Settings in all cases: compound 0.5 µM
SRMS (human) = SRMS (human) (UniProt Q9H3Y6)
NEK6 (human) = NEK6 (human) (UniProt Q9HC98)
NLK (human) = NLK (human) (UniProt Q9UBE8)
MYO3B (human) = MYO3B (human) (UniProt Q8WXR4)
SGK3 (human) = SGK3 (human) (UniProt Q96BR1)
STK32A (human) = STK32A (human) (UniProt Q8WU08)
CLK3 (human) = CLK3 (human) (UniProt P49761)
CDK13 (human) = CDK13 (human) (UniProt Q14004)
[1] = tested on: PIK3CA (human), P42336 [E542K]
MKNK1 (human) = MKNK1 (human) (UniProt Q9BUB5)
BMPR1A (human) = BMPR1A (human) (UniProt P36894)
PIK3C2B (human) = PIK3C2B (human) (UniProt O00750)
[2] = tested on: KIT (human), P10721 [A829P]
ADCK3 (human) = ADCK3 (human) (UniProt Q8NI60)
STK16 (human) = STK16 (human) (UniProt O75716)
TBK1 (human) = TBK1 (human) (UniProt Q9UHD2)
CDK16 (human) = CDK16 (human) (UniProt Q00536)
RPS6KA2 KD1 (human) = RPS6KA2 KD1 (human) (UniProt Q15349)
CAMKK2 (human) = CAMKK2 (human) (UniProt Q96RR4)
PRKD2 (human) = PRKD2 (human) (UniProt Q9BZL6)
MAPK6 (human) = MAPK6 (human) (UniProt Q16659)
[3] = tested on: RET (human), P07949 [M918T]
GSK3B (human) = GSK3B (human) (UniProt P49841)
BRSK1 (human) = BRSK1 (human) (UniProt Q8TDC3)
FGFR1 (human) = FGFR1 (human) (UniProt P11362)
RET (human) = RET (human) (UniProt P07949)
PTK2B (human) = PTK2B (human) (UniProt Q14289)
DDR2 (human) = DDR2 (human) (UniProt Q16832)
TYRO3 (human) = TYRO3 (human) (UniProt Q06418)
CDK3 (human) = CDK3 (human) (UniProt Q00526)
PAK2 (human) = PAK2 (human) (UniProt Q13177)
EPHA2 (human) = EPHA2 (human) (UniProt P29317)
[4] = tested on: FLT3 (human), P36888 [ITD]
MAPK1 (human) = MAPK1 (human) (UniProt P28482)
[5] = tested on: MET (human), P08581 [M1250T]
KDR (human) = KDR (human) (UniProt P35968)
HCK (human) = HCK (human) (UniProt P08631)
TEC (human) = TEC (human) (UniProt P42680)
CaMK1 (human) = CaMK1 (human) (UniProt Q14012)
EPHB2 (human) = EPHB2 (human) (UniProt P29323)
MARK3 (human) = MARK3 (human) (UniProt P27448)
MYLK4 (human) = MYLK4 (human) (UniProt Q86YV6)

RET (human), P07949 [M918T], sequence (P07949 whole entry M918T, looked up): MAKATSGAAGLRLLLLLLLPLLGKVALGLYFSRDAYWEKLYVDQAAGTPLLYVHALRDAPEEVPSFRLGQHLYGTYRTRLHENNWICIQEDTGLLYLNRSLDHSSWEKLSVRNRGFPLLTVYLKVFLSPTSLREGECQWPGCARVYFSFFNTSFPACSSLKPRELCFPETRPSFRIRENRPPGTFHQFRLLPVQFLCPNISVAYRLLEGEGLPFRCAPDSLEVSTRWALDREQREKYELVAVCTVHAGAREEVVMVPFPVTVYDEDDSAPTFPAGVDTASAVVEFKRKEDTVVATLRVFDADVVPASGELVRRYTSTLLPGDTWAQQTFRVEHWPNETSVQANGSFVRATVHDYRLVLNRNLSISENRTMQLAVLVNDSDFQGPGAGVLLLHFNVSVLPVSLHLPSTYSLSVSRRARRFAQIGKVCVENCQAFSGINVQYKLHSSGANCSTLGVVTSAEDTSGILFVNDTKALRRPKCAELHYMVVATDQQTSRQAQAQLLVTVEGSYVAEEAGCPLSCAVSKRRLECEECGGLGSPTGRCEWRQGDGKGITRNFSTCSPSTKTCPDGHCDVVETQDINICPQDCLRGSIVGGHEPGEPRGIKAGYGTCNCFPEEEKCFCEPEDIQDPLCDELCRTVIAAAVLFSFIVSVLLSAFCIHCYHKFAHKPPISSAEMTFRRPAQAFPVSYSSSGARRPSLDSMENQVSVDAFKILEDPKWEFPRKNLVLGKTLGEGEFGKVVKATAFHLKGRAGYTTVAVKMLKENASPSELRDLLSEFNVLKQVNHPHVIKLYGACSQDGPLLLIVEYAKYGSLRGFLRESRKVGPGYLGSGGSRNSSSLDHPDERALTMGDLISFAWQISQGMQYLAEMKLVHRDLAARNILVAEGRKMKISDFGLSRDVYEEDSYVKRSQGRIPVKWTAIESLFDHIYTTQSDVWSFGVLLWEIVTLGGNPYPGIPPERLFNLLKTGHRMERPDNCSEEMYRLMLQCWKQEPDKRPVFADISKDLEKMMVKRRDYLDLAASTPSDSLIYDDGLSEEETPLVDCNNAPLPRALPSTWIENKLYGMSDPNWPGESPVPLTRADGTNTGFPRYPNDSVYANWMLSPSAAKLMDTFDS
MAPK6 (human), sequence (Q16659 whole entry, looked up): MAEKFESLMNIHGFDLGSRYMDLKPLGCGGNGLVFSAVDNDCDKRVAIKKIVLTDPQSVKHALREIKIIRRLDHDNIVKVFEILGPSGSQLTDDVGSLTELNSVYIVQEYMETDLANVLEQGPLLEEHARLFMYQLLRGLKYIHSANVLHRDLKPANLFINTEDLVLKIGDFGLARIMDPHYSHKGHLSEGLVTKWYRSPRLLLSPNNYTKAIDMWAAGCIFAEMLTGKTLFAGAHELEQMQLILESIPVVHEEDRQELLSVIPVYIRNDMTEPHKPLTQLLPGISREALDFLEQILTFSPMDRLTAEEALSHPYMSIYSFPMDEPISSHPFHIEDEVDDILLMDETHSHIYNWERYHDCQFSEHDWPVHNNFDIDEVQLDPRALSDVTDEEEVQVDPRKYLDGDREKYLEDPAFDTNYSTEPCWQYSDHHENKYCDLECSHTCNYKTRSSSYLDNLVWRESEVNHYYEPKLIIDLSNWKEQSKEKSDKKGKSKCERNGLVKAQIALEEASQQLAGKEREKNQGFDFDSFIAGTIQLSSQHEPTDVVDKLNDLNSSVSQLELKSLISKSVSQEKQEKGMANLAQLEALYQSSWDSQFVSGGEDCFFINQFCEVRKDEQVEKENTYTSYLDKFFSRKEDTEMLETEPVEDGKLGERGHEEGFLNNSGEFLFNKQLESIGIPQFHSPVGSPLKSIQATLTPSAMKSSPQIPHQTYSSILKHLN
TEC (human), sequence (P42680 whole entry, looked up): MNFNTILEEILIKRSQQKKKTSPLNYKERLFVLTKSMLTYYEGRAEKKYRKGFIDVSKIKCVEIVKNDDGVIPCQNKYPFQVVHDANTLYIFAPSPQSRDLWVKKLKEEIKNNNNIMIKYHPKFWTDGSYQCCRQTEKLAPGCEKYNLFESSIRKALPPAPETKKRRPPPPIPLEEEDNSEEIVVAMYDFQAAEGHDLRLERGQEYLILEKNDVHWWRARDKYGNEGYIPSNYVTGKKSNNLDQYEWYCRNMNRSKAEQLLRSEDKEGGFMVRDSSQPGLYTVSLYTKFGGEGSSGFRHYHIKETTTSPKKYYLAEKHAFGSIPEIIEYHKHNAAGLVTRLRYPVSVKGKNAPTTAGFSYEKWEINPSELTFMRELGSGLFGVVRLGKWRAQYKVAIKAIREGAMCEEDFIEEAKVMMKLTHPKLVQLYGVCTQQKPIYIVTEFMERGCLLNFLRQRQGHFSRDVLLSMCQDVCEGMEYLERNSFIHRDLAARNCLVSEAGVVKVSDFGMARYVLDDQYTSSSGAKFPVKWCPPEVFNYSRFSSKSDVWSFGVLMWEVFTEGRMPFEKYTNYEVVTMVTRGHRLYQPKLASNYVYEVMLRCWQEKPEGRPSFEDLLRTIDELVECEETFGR
CLK3 (human), sequence (P49761 whole entry, looked up): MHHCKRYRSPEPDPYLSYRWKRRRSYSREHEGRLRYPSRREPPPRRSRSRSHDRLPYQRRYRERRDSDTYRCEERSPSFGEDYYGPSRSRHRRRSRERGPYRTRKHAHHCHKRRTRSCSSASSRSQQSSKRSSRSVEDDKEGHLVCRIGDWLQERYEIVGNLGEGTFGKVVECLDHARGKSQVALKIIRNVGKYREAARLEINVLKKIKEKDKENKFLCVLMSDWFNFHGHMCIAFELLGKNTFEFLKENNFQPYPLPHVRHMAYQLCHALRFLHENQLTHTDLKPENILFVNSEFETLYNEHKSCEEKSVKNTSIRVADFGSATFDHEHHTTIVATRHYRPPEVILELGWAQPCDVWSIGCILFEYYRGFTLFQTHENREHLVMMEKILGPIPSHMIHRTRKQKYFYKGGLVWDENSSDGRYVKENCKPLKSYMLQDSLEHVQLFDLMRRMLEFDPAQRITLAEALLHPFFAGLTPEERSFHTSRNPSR
KDR (human), sequence (P35968 whole entry, looked up): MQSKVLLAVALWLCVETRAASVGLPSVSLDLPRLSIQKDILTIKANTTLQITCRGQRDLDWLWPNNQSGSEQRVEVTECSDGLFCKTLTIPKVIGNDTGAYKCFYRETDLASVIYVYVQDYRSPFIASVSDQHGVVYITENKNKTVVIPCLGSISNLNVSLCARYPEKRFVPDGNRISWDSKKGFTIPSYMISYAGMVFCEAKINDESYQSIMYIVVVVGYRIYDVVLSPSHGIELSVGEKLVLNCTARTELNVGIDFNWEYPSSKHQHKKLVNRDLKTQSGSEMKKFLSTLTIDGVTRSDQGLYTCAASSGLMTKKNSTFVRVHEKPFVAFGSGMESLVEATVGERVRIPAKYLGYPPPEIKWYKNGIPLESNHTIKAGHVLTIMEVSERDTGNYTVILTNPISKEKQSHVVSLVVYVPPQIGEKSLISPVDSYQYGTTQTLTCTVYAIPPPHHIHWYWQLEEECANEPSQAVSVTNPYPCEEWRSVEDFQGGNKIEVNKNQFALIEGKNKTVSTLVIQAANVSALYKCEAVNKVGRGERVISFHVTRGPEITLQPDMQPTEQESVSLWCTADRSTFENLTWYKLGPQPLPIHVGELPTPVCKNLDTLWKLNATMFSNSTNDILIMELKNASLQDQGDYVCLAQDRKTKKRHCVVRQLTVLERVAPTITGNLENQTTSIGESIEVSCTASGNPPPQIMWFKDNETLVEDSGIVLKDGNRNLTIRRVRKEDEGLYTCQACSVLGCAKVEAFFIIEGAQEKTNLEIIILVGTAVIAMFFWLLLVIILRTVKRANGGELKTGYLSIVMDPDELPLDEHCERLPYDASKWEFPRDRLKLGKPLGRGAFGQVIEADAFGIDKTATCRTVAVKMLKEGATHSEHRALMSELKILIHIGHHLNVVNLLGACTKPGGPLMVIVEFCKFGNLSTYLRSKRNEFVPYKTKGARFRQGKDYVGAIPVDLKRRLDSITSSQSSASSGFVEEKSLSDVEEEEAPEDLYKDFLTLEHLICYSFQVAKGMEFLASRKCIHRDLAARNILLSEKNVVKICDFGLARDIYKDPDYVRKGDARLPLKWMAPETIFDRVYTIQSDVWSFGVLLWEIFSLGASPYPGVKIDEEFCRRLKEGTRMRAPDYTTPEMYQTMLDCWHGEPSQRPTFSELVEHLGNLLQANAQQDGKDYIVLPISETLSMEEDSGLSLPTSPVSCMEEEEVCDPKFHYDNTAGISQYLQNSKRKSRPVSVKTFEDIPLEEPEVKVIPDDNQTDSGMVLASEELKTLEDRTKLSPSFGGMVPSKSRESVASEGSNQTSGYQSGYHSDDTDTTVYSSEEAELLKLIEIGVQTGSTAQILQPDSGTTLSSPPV
RPS6KA2 KD1 (human), sequence (Q15349 whole entry, looked up): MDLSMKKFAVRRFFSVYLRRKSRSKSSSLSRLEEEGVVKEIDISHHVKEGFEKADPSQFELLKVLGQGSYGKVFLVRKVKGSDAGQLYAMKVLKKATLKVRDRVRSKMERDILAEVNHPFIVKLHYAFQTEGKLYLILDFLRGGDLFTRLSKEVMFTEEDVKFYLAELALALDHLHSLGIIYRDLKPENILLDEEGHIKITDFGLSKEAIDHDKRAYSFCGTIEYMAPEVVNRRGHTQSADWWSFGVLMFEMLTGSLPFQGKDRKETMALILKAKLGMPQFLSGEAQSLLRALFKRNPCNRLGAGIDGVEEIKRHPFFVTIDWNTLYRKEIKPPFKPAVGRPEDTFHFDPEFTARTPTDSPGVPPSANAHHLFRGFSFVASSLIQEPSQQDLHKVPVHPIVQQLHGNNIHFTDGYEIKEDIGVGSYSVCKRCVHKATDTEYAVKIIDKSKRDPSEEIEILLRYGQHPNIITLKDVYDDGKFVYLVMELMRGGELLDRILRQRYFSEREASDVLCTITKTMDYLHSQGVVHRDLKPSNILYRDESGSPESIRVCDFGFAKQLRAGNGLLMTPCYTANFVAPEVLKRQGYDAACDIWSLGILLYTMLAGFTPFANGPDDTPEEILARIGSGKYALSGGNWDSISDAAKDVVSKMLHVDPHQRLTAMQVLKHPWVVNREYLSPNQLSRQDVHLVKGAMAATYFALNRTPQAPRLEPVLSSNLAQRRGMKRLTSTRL
RET (human), sequence (P07949 whole entry, looked up): as the sequence (P07949 whole entry M918T, looked up) above, with T918M counted along it

Cn1c2ccccc2c2c3c(c4c5ccccc5n(CCC#N)c4c21)CNC3=O gave a kinase still bound, per cent of control (SRMS (human)) of 100%, a kinase still bound, per cent of control (NEK6 (human)) of 100% and a kinase still bound, per cent of control (NLK (human)) of 100%. For the same molecule, the kinase still bound, per cent of control (MYO3B (human)) was 100%, the kinase still bound, per cent of control (SGK3 (human)) was 72% and the kinase still bound, per cent of control (STK32A (human)) was 94%. The kinase still bound, per cent of control (CLK3 (human)) was 94%, the kinase still bound, per cent of control (CDK13 (human)) was 100% and the kinase still bound, per cent of control [1] was 100%. It also gave a kinase still bound, per cent of control (MKNK1 (human)) of 86%, a kinase still bound, per cent of control (BMPR1A (human)) of 73% and a kinase still bound, per cent of control (PIK3C2B (human)) of 100%. It also gave a kinase still bound, per cent of control [2] of 54%, a kinase still bound, per cent of control (ADCK3 (human)) of 100% and a kinase still bound, per cent of control (STK16 (human)) of 84%. For the same molecule, the kinase still bound, per cent of control (TBK1 (human)) was 92%, the kinase still bound, per cent of control (CDK16 (human)) was 93% and the kinase still bound, per cent of control (RPS6KA2 KD1 (human)) was 5.4%. The kinase still bound, per cent of control (CAMKK2 (human)) was 1.6%, the kinase still bound, per cent of control (PRKD2 (human)) was 4.8% and the kinase still bound, per cent of control (MAPK6 (human)) was 74%. The kinase still bound, per cent of control [3] was 0.15%, the kinase still bound, per cent of control (GSK3B (human)) was 81% and the kinase still bound, per cent of control (BRSK1 (human)) was 51%. The kinase still bound, per cent of control (FGFR1 (human)) was 74%, the kinase still bound, per cent of control (RET (human)) was 0.6% and the kinase still bound, per cent of control (PTK2B (human)) was 19%. For the same molecule, the kinase still bound, per cent of control (DDR2 (human)) was 100%, the kinase still bound, per cent of control (TYRO3 (human)) was 78% and the kinase still bound, per cent of control (CDK3 (human)) was 75%. It also gave a kinase still bound, per cent of control (PAK2 (human)) of 51%, a kinase still bound, per cent of control (EPHA2 (human)) of 87% and a kinase still bound, per cent of control [4] of 0.2%. The kinase still bound, per cent of control (MAPK1 (human)) was 100%, the kinase still bound, per cent of control [5] was 100% and the kinase still bound, per cent of control (KDR (human)) was 82%. It also gave a kinase still bound, per cent of control (HCK (human)) of 100%, a kinase still bound, per cent of control (TEC (human)) of 92% and a kinase still bound, per cent of control (CaMK1 (human)) of 76%. The kinase still bound, per cent of control (EPHB2 (human)) was 100%, the kinase still bound, per cent of control (MARK3 (human)) was 16% and the kinase still bound, per cent of control (MYLK4 (human)) was 17%.
